Source: US10912763B2 (priority 2010, dated 2021)

Test: Pharmacological activity of the decomposition product

For `Fc1ccc2[nH]c3c(c2c1)CCOC31CC=C(c2ccccc2)CC1` (stereo not shown) [6′-fluoro-4-phenyl-4′,9′-dihydro-3′H-spiro[cyclohex-3-ene-1,1′-pyrano[3,4-b]indole]], the Pharmacological activity was “pharmacologically inactive”.
